Data from patent US20240336594A1, “SIX-MEMBERED ARYL OR HETEROARYL AMIDES, AND COMPOSITION AND USE THEREOF” (BETTA PHARMACEUTICALS CO., LTD, priority 2021, published 2024).

Assays:
MALT1 = molecular target: T1, MALT1 (Homo sapiens, UniProt Q9UDY8); assay: MALT1 protease inhibition assay (AMC-labeled peptide, fluorescence 360/460); type: biochemical; settings: substrate Ac-LRSR-AMC, 15 min preincubation, 90 min at 25° C.
T1 sequence (Q9UDY8 1-824): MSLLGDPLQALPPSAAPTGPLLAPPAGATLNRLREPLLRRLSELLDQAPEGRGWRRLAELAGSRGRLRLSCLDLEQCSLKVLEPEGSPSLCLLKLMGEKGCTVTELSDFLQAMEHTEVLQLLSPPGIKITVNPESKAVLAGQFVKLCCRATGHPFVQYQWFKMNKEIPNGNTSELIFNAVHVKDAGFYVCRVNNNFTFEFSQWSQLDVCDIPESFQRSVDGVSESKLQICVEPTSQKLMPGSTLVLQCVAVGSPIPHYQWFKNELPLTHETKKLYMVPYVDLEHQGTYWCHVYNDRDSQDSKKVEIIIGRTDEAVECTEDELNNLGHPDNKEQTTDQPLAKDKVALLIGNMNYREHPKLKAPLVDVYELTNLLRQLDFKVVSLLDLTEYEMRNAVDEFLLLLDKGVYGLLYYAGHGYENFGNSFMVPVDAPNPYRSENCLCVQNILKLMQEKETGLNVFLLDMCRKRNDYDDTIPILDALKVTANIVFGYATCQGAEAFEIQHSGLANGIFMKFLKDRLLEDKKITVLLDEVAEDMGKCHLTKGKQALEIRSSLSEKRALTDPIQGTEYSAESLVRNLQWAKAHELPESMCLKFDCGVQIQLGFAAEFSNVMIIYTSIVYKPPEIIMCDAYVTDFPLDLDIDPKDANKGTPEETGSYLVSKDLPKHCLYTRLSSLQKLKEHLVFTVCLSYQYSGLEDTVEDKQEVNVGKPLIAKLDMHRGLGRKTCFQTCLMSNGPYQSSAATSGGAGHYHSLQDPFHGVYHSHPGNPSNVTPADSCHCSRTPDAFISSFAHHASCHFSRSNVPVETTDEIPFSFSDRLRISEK
Summary of the method: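 Fluorogenic AMC-peptide cleavage read after 90 min at 25 °C, following a 15 min enzyme–compound preincubation at 25 °C in citrate protease buffer plus DTT. Compounds run as ten 3-fold dilutions in duplicate; percent inhibition relative to enzyme-only and enzyme-free controls, fitted to IC50.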

[1] = system: IL-2 secretion of Jurkat cells (PMA/Ionomycin inducing); assay: ELISA method to detect IL-2 secretion induced by PMA/Ionomycin; type: cell-based; settings: Homo sapiens, 20 h
Protocol: 12.5*10^3 Jurkat cells were seeded on a 96-well plate and incubated with various concentrations of compound solution for 30 min. Then, 500×PMA/Ionomycin stimulating factor was diluted with culture medium and added to the cell plate. […] The final concentrations of the compounds were 10000, 3333.3, 1111.1, 370.4, 123.5, 41.2, 13.7, 4.6, 1.5, 0 nM (The final concentration of DMSO is 0.5%). After incubation for 20 h, the supernatant was collected via centrifugation. The final IL-2 concentration was detected by ELISA method (IL-2 Duoset, R&D Systems, DY202). The signal value of each sample at a wavelength of 450 nm was collected by EnVision multifunctional microplate reader and converted to the IL-2 concentration via the ELISACalc.exe software. The IL-2 secretion inhibitory activity IC50 was fitted by GraphPad Prism software. The cell viability was tested simultaneously using the Cell-Titer Glo kit.
The compounds of the present invention show strong inhibitory effect on IL-2 secretion of Jurkat cells (PMA/Ionomycin inducing).

Compound | IC50 (MALT1) [µM] | IC50 [1] [µM]
Nc1cc(F)ccc1-c1cc(Cl)c(C(=O)Nc2cnc(-n3nccn3)c(Cl)c2)cc1F [Example A121, 2′-amino-5-chloro-N-(5-chloro-6-(2H-1,2,3-triazol-2-yl)pyridin-3-yl)-2,4′-difluoro-[1,1′-biphenyl]-4-carboxamide] | ≤ 0.01 | 0.043
Nc1cc(F)ccc1-c1cc(Cl)c(C(=O)Nc2cnc(-n3nccn3)c(C(F)(F)F)c2)cc1F [Example A122, N-(6-(2H-1,2,3-triazol-2-yl)-5-(trifluoromethyl)pyridin-3-yl)-2′-amino-5-chloro-2,4′-difluoro-[1,1′-biphenyl]-4-carboxamide] | ≤ 0.01 | 0.121
Nc1cc(F)ccc1-c1cc(F)c(C(=O)Nc2cnc(-n3nccn3)c(C(F)(F)F)c2)cc1Cl [Example A123, N-(6-(2H-1,2,3-triazol-2-yl)-5-(trifluoromethyl)pyridin-3-yl)-2′-amino-2-chloro-4′,5-difluoro-[1,1′-biphenyl]-4-carboxamide] | ≤ 0.01 | 0.058
Nc1cnccc1-c1cc(F)c(C(=O)Nc2cnc(-n3nccn3)c(Cl)c2)cc1Cl [Example A124] | ≤ 0.01 | 0.252
Cc1cc(-c2ccncc2Cl)c(F)cc1C(=O)Nc1cnc(-n2nccn2)c(Cl)c1 [Example A126] | ≤ 0.01 | 0.136
C#Cc1cc(F)cc(N)c1-c1cc(Cl)c(C(=O)Nc2cnc(-n3nccn3)c(Cl)c2)cc1F [Example A412] | ≤ 0.01 | 0.032
C#Cc1cnccc1-c1cc(Cl)c(C(=O)Nc2cnc(C(=O)NC)c(Cl)c2)cc1F [Example A426, 3-chloro-5-(2-chloro-4-(3-ethynylpyridin-4-yl)-5-fluorobenzamido)-N-methylpicolinamide] | ≤ 0.01 | 0.077
C#Cc1cnccc1-c1cc(Cl)c(C(=O)Nc2cnc(C(=O)NCC#N)c(Cl)c2)cc1F [Example A427, 3-chloro-5-(2-chloro-4-(3-ethynylpyridin-4-yl)-5-fluorobenzamido)-N-(cyanomethyl)picolinamide] | ≤ 0.01 | 0.077
C#Cc1cncc(N)c1-c1cc(Cl)c(C(=O)Nc2cnc(C(=O)NCC(F)(F)F)c(Cl)c2)cc1F [Example A470, 5-(4-(3-amino-5-ethynylpyridin-4-yl)-2-chloro-5-fluorobenzamido)-3-chloro-N-(2,2,2-trifluoroethyl)picolinamide] | ≤ 0.01 | 0.113
Nc1cncc(C2CC2)c1-c1cc(Cl)c(C(=O)Nc2cnc(-n3nccn3)c(Cl)c2)cc1F [Example A506, 4-(3-amino-5-cyclopropylpyridin-4-yl)-2-chloro-N-(5-chloro-6-(2H-1,2,3-triazol-2-yl)pyridin-3-yl)-5-fluorobenzamide] | ≤ 0.01 | 0.076

The next lines start with the values.

IC50 (MALT1) [µM] | IC50 [1] [µM] | Compound
≤ 0.01 | 0.444 | CNc1cc(F)ccc1-c1cc(F)c(C(=O)Nc2cnc(-n3nccn3)c(Cl)c2)cc1Cl [Example A127, 2-chloro-N-(5-chloro-6-(2H-1,2,3-triazol-2-yl)pyridin-3-yl)-4′,5-difluoro-2′-(methylamino)-[1,1′-biphenyl]-4-carboxamide]
≤ 0.01 | 0.077 | O=C(Nc1cnc(-n2nccn2)c(Cl)c1)c1cc(F)c(-c2ccc(F)cc2CO)cc1Cl [Example A281]
≤ 0.01 | 0.066 | C#Cc1cncc(N)c1-c1cc(Cl)c(C(=O)Nc2cnc(-n3nccn3)c(C(F)(F)F)c2)cc1F [Example A410, N-(6-(2H-1,2,3-triazol-2-yl)-5-(trifluoromethyl)pyridin-3-yl)-4-(3-amino-5-ethynylpyridin-4-yl)-2-chloro-5-fluorobenzamide]
≤ 0.01 | 0.017 | C#Cc1cncc(N)c1-c1cc(Cl)c(C(=O)Nc2cnc(-n3nccn3)c(Cl)c2)cc1F [Example A411, 4-(3-amino-5-ethynylpyridin-4-yl)-2-chloro-N-(5-chloro-5-(2H-1,2,3-triazol-2-yl)pyridin-3-yl)-5-fluorobenzamide]
≤ 0.01 | 0.164 | C#Cc1cnccc1-c1cc(Cl)c(C(=O)Nc2cnc(C(=O)NCC)c(Cl)c2)cc1F [Example A428, 3-chloro-5-(2-chloro-4-(3-ethynylpyridin-4-yl)-5-fluorobenzamido)-N-ethylpicolinamide]
